Values joined by “and” are separate entries in the source; they are usually repeats but may differ in a detail not shown here. Equal entries are not always repeated.

Assay [1] concerns washed platelets on collagen-coated coverslips. Briefly: Platelet adhesion on collagen-coated surface. Format: cell-based, rat. Particulars: for Area (%) of platelets adherent on collagen: single replicates. Here is the method:
Washed platelets were treated with naringenin or vehicle at 37°C for 10 min in the presence of 2 mM CaCl2 ([Suzuki-Inoue et al., 2001]). The platelets were added to collagen-coated coverslips and incubated at 37°C for 45 min. After unbound platelets were removed by washing, adherent platelets were fixed with 4% paraformaldehyde, permeabilized with 0.1% Triton X-100 and stained with TRITC-conjugated phalloidin (1 μg/ml). Adherent platelets were viewed using an inverted fluorescence microscope (Nikon TE-2000S) and processed using Image J software.

The subject of assay [2] is PI3Kp110β. The experiment in a line: Immunoblotting of PI3Kp110β in ADP-stimulated washed platelets. Format: cell-based, rat. The settings on record: ADP 10 μmol/L, single replicates; for PI3Kp110β / GAPDH: raw data. As to the method:
(§1) For in vitro platelet aggregation, aliquots of washed platelets were preincubated with vehicle or various concentrations of naringenin for 5 min and stimulated with ADP (10 μmol/L) under stirring at 37°C for 5 min. For ex vivo platelet aggregation, PRP was incubated at 37°C for 5 min and stimulated with ADP (5 μmol/L) under stirring at 37 °C. The platelet aggregation was terminated by adding ethylenediaminetetraacetic acid (EDTA; 10 mM). Total protein was prepared using RIPA lysis buffer and protein content was determined by bicinchoninic acid (BCA) protein assay kit. Equal amounts of platelet proteins (30 μg) were separated on 10% SDS polyacrylamide gel electrophoresis (SDS-PAGE) and then transferred to poly vinylidene difluoride (PVDF) membranes and subjected to western blot. Blots were blocked with TBS-Tween 20 containing 5% BSA and probed with primary antibodies diluted in blocking solution at 4°C overnight followed by incubation with the corresponding HRP secondary antibodies. The protein bands were visualized using enhanced chemiluminescence (ECL).
FIGURE 4 Naringenin inhibits PI3K-mediated signaling in ADP-induced platelets. Washed rat platelets were preincubated without or with naringenin at 37°C for 5 min, and then stimulated with ADP (10 μmol/L) under stirring for 5 min. Platelet proteins were then extracted and analyzed by immunoblotting using PI3Kp110β antibody (A) and phospho-specific antibodies such as Akt^Ser473 (B), Akt^Thr308 (C), ERK1/2^Thr202/Tyr204 (D) and GSK3β^Ser9 (E). Total level of GAPDH was measured on each sample as a loading control. The blots shown are representative of three separate experiments. The relative protein expression levels were quantified by ImageJ 1.47v software. The level of relative protein expression obtained with vehicle control (0 μM) was taken as 1. R represents the level of relative protein expression in resting platelets. Data are expressed as means ± SD (n = 3). *p < 0.05, **p < 0.01, ***p < 0.001 compared with the vehicle control group.
For orientation: Immunoblotting shows a protein as a band on a membrane.

Assay [3] has as its system PDE extracts prepared from rat PRP (cAMP hydrolysis). The experiment in a line: Phosphodiesterase activity in platelet extracts, hydrolysis of cAMP (HPLC). It counts as biochemical. Particulars: vehicle = 100%, single replicates. Here is the method:
The effects of naringenin on PDE activity were determined using high-performance liquid chromatography (HPLC) ([Hu et al., 2011]). Briefly, PRP was pelleted by centrifugation for 10 min at 900 × g and homogenized in PBS containing 0.1% Triton X-100 using an ultrasonic homogenizer. After centrifugation at 12,000 × g for 20 min at 4°C, the supernatant was subjected to PDE activity assay.
DMSO vehicle or different concentrations naringenin were added to assay buffer (137 mM NaCl, 2.7 mM KCl, 8.8 mM Na2HPO4, 1.5 mM KH2PO4, 1 mM CaCl2, 1 mM MgCl2, pH 7,4) containing cAMP or cGMP. The reaction was initiated by adding 30 μL PDE extracts prepared from rat PRP as described above. Some extracts were boiled for 3 min to inactivate PDE before addition. After incubation for 30 min at […], the reaction was terminated by boiling the mixture for 3 min. Subsequently, the mixture was cooled on ice followed by centrifugation at 12,000 × g for 20 min at 4°C. The supernatant was subjected cAMP or cGMP assay using HPLC. PDE activity was expressed as percentages of the hydrolysis of cAMP or cGMP.

In assay [4] the test system is ERK1/2 phosphorylation. The experiment in a line: Ex vivo immunoblotting of phospho-ERK1/2 in ADP-stimulated PRP of treated rats. The settings on record: for p-ERK1/2 / t-ERK (Fold to Control) / p-ERK1/2 / t-ERK (raw data): ex vivo, Figure 8E. Also noted: species or system rat. Here is the method: Male SD rats were randomly divided into 5 groups with 6 rats in each group. […] Sixty minutes after the last sample treatment, blood was drawn from the abdominal aorta of rats into the siliconized vacutainers containing 1:9 (v/v) 3.8% sodium citrate. The collected blood was centrifuged at 100 × g for 10 min at room temperature to obtain PRP. […] The platelet counts of PRP were adjusted to 4×10^8 cells/mL using PPP. PRP was incubated for 5 min at 37°C and then stimulated by ADP (5 μM). The maximum platelet aggregation rate was determined as mentioned above.
as §1
Blood was collected and PRP was obtained after the last treatment. Platelet aggregation was induced by ADP (5 μmol/L) (A). Data are expressed as means ± SD (n = 6). After ADP stimulation, platelet proteins were then extracted and analyzed by immunoblotting using PI3Kp110β antibody (B) and phospho-specific antibodies such as Akt^Ser473 (C), Akt^Thr308 (D) and ERK1/2^Thr202/Tyr204 (E). Total level of GAPDH was measured on each sample as a loading control. The blots shown are representative of three separate experiments. The relative protein expression levels were quantified by ImageJ 1.47v software. The level of relative protein expression obtained with vehicle control was taken as 1. R represents the level of relative protein expression in resting platelets. Data are expressed as means ± SD (n = 3). *p < 0.05, **p < 0.01, ***p < 0.001 compared with the vehicle control group (Con).
To further investigate the antiplatelet mechanisms of naringenin ex vivo, several signaling molecules such as PI3Kp110β, Akt and ERK were detected. After oral administration of naringenin (200, 400, and 800 mg/kg) to rats for 7 days, rat PRP was prepared and stimulated by ADP (5 μmol/L), and platelets were lysed to determine protein phosphorylation levels using western blot.

With `O=C1C[C@@H](c2ccc(O)cc2)Oc2cc(O)cc(O)c21` [Naringenin], the “Area (%) of platelets adherent on collagen” value in assay [1] (100 μM) was 29.32% and 16.92% and 17.38%; in assay [1] (200 μM), 17.54% and 13.16% and 17.35%; in assay [1] (400 μM), 12.99% and 15.28% and 9.21%; in assay [1] (800 μM), 2.55% and 1.74% and 1.66%. Also, the “platelet adhesion on collagen-coated surface” value in assay [1] (200, 400 and 800 μM) is “significantly reduced”. For the same compound, the “PI3Kp110β / GAPDH” value in assay [2] (100 μM) is 0.2747 and 0.1851 and 0.4122; in assay [2] (200 μM) it was 0.2677 and 0.1570 and 0.3210; in assay [2] (400 μM), 0.1072 and 0.1459 and 0.2766; in assay [2] (800 μM), 0.0408 and 0.0426 and 0.1130. The “PI3Kp110β / GAPDH (Fold to ADP only)” value in assay [2] (100 μM) is 0.5384 Fold to ADP only and 0.3629 Fold to ADP only and 0.8080 Fold to ADP only; in assay [2] (200 μM), 0.5248 Fold to ADP only and 0.3077 Fold to ADP only and 0.6292 Fold to ADP only; in assay [2] (400 μM), 0.2102 Fold to ADP only and 0.2861 Fold to ADP only and 0.5422 Fold to ADP only; in assay [2] (800 μM), 0.0801 Fold to ADP only and 0.0835 Fold to ADP only and 0.2214 Fold to ADP only. In addition, the “PDE activity (%)” value was 78.12% and 75.15% and 93.45% in assay [3] (100 μM); 76.39% and 84.94% and 63.29% in assay [3] (200 μM); 79.01% and 85.41% and 68.34% in assay [3] (400 μM); 43.72% and 69.43% and 76.24% in assay [3] (800 μM). For the same compound, the “p-ERK1/2 / t-ERK (Fold to Control)” value in assay [4] (naringenin 200mg/kg) was 0.4913 and 0.9007 and 0.8159; in assay [4] (naringenin 800mg/kg) it was 0.4112 and 0.5367 and 0.7060. The “p-ERK1/2 / t-ERK (raw data)” value was 0.4317 and 0.7915 and 0.7170 in assay [4] (naringenin 200mg/kg); 0.3613 and 0.4716 and 0.6204 in assay [4] (naringenin 800mg/kg). Also, the “phosphorylation of ERK in rat PRP ex vivo” value in assay [4] (rats, oral 200, 400, and 800 mg/kg for 7 days, ADP 5 μmol/L) is on record as “significantly suppressed”.
